Results: BigSolDB 2.1

C[N+](C)(C)C[C@H](O)CC(=O)[O-]
solubility (mole fraction)
Settings | in acetone | in ethanol | in isopropanol | in methanol
278.15 K | 7.1e-05 | 0.0392 | 0.00146 | 0.0962
283.15 K | 8.1e-05 | 0.0408 | 0.00181 | 0.0982
288.15 K | 9.1e-05 | 0.0431 | 0.00223 | 0.104
293.15 K | 0.000106 | 0.0452 | 0.00271 | 0.111
298.15 K | 0.000117 | 0.0483 | 0.0034 | 0.119
303.15 K | 0.000131 | 0.0517 | 0.00417 | 0.127
308.15 K | 0.000143 | 0.0546 | 0.00527 | 0.136
313.15 K | 0.000157 | 0.0576 | 0.0063 | 0.144
318.15 K | 0.000175 | 0.0607 | 0.00778 | 0.154
323.15 K | 0.000195 | 0.0648 | 0.00983 | 0.165
328.15 K | 0.00022 | 0.0698 | 0.0118 | 0.178
333.15 K | – | 0.0747 | 0.0144 | 0.189
338.15 K | – | 0.0801 | – | –
343.15 K | – | 0.0855 | – | –
348.15 K | – | 0.0919 | – | –
